Read-outs that look alike come from different tables or passages of the source.
Key:
Assay in all cases: human MTase selectivity panel
Type in all cases: biochemical
[1] = target: T1, NSD2 (Homo sapiens, UniProt O96028)
T1 sequence (O96028 1-1365): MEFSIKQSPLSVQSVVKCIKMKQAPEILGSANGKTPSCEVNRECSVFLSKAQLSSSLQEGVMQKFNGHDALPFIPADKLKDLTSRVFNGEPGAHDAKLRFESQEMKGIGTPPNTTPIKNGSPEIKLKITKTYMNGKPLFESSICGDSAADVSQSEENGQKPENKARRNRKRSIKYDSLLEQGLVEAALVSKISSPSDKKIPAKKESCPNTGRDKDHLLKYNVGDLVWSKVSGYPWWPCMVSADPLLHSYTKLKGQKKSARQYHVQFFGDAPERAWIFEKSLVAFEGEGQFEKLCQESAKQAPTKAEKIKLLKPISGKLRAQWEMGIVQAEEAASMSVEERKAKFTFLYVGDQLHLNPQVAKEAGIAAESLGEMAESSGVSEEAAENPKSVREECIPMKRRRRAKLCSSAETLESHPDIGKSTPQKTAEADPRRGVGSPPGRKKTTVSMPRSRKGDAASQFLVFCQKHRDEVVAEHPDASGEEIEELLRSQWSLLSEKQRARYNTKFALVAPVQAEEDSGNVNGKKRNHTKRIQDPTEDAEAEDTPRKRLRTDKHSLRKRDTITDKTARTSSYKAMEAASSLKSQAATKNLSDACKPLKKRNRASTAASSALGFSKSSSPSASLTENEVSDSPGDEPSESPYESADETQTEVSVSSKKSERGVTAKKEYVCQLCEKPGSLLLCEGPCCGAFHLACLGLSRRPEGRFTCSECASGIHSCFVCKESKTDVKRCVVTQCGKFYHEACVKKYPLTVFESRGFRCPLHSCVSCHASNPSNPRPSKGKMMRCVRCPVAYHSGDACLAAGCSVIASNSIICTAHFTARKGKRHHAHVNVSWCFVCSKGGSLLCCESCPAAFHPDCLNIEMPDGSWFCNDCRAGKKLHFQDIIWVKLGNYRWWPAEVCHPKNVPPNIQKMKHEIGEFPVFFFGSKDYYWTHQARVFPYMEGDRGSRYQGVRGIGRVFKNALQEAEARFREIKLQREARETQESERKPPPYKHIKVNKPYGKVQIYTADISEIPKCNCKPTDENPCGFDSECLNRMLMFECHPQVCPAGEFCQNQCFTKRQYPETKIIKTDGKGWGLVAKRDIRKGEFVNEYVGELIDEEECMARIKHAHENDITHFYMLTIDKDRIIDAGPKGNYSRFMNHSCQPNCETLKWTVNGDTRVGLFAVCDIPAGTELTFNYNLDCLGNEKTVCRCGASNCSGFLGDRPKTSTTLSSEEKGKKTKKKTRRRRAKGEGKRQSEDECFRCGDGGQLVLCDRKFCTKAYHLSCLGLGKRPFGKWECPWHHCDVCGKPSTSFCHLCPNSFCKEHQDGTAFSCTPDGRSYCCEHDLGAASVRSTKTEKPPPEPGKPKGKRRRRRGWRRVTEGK

[2] = target: SUV39H2 (Homo sapiens, UniProt Q9H5I1)
[3] = target: SETD2 (Homo sapiens, UniProt Q9BYW2)
[4] = target: T2, BCDIN3D (Homo sapiens, UniProt Q7Z5W3)
T2 sequence (Q7Z5W3 1-292): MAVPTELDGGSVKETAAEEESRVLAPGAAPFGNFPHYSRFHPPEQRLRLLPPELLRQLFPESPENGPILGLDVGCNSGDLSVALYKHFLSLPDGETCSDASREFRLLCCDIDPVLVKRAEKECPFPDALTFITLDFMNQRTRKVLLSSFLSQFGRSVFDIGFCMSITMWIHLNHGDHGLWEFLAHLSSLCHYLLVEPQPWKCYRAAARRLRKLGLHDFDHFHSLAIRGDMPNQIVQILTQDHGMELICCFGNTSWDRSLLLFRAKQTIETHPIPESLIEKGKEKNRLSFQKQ

[5] = average ± SD, read-out: Activity (%) at 10 µM Average
[6] = read-out: Activity (%) at 10 µM Replicate 1
[7] = read-out: Activity (%) at 10 µM Replicate 2
[8] = read-out: Activity (%) at 10 µM Replicate 3

Chain of SUV39H2 (Q9H5I1 whole entry): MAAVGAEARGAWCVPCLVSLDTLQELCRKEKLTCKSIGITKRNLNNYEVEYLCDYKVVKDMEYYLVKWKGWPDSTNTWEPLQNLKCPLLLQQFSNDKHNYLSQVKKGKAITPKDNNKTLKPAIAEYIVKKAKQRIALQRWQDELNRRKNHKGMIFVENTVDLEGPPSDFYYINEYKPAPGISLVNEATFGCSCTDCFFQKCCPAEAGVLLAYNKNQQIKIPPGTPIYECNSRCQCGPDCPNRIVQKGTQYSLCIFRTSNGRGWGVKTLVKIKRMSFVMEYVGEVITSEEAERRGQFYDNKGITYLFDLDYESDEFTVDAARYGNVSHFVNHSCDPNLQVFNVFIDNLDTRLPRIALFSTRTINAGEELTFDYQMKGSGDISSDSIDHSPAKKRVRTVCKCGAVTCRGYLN
Chain of SETD2 (Q9BYW2 whole entry): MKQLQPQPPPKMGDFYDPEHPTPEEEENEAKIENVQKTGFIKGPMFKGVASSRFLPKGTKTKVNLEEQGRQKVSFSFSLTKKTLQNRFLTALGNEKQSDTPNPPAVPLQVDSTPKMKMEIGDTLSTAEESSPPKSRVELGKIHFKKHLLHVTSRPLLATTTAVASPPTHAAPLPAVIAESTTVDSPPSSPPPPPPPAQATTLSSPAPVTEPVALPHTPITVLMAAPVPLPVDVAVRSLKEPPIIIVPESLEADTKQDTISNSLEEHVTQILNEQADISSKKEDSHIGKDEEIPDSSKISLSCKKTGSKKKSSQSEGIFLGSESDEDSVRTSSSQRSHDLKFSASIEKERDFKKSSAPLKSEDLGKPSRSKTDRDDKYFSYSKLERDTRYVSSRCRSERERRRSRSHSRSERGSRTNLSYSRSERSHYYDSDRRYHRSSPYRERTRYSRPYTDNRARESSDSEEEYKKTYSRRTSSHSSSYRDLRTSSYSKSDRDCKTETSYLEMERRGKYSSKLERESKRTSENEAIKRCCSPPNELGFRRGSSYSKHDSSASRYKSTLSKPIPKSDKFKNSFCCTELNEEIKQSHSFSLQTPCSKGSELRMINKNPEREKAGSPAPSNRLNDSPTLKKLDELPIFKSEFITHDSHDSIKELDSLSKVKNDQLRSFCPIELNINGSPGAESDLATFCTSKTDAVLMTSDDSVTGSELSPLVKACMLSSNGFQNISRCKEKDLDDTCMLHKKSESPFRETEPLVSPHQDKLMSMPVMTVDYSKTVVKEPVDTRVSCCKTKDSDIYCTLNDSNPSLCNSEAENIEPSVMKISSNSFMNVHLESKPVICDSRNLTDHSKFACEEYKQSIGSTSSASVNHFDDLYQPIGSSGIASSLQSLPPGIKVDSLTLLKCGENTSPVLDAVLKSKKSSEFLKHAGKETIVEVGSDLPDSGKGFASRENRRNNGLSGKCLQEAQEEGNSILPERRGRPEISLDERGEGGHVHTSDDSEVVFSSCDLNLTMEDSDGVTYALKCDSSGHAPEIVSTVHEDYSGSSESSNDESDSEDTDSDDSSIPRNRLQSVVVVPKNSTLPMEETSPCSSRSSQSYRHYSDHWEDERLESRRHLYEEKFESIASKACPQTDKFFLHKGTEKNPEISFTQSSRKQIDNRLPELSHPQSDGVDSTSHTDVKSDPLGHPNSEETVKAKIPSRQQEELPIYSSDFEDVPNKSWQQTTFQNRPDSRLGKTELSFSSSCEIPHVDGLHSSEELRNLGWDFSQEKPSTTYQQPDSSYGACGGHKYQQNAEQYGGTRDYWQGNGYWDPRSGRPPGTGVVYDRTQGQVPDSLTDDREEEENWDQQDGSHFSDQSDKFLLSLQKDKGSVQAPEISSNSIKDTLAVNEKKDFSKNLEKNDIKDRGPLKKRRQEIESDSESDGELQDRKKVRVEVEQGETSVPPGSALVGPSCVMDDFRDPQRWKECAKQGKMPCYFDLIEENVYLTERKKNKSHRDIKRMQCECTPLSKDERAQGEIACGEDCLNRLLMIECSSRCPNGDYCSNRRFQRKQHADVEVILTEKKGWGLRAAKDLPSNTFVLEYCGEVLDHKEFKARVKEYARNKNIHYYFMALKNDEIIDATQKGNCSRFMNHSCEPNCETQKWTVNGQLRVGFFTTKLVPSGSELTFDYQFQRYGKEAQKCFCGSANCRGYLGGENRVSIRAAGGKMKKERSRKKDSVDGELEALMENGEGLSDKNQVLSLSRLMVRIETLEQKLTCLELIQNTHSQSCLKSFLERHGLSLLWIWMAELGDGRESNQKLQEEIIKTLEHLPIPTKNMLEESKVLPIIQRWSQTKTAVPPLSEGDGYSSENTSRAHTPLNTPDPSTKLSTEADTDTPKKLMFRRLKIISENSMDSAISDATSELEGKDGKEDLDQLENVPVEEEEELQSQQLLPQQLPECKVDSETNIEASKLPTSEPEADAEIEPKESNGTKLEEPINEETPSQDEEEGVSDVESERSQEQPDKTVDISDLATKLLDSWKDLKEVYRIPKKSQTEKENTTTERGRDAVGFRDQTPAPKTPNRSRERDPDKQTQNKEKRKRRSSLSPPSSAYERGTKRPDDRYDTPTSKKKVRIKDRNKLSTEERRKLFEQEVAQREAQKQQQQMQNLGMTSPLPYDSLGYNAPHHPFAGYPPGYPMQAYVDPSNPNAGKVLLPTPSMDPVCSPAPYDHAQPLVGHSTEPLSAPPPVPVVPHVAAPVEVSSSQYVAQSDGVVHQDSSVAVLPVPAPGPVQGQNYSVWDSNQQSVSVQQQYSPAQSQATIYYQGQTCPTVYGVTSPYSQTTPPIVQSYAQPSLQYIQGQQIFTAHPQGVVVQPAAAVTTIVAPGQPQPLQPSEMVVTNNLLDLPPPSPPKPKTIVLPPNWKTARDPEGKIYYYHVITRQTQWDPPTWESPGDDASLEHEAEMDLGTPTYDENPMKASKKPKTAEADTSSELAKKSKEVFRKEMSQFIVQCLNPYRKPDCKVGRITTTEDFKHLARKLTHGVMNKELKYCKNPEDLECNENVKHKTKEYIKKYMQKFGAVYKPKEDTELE

Structure (SMILES): Nc1ncnc2c1ncn2[C@@H]1O[C@H](CSCc2ccc(Cl)cc2)[C@@H](O)[C@H]1O [NSC620333]
- activity at 10 µM [1, 5]: 92 ± 7%
- activity at 10 µM [1, 6]: 100%
- activity at 10 µM [1, 7]: 86%
- activity at 10 µM [1, 8]: 90%
- activity at 10 µM [2, 5]: 103 ± 7%
- activity at 10 µM [2, 6]: 108%
- activity at 10 µM [2, 7]: 96%
- activity at 10 µM [2, 8]: 106%
- activity at 10 µM [3, 5]: 103 ± 4%
- activity at 10 µM [3, 6]: 99%
- activity at 10 µM [3, 7]: 103%
- activity at 10 µM [3, 8]: 107%
- activity at 10 µM [4, 5]: 62 ± 5%
- activity at 10 µM [4, 6]: 57%
- activity at 10 µM [4, 7]: 66%
- activity at 10 µM [4, 8]: 64%
